# Measurements: patent publication US12122763B2, “Substituted piperidines for androgen receptor degradation” (UBIX THERAPEUTICS, INC., priority 2020, dated 2024)
# Target: T1, Androgen Receptor (AR) protein (Homo sapiens, UniProt P10275, T878A)
# T1 construct: endogenous in cells; host or cells: LNCaP
# Test: Androgen Receptor (AR) protein degradation assay in LNCaP cells, western blotting
# Type: cell-based
# Conditions: 20 h; for inhibition at 0.01 µM: 0.01 μM compound; for inhibition at 0.1 µM: 0.1 μM compound; for inhibition at 1 µM: 1 μM compound; for inhibition at 10 µM: 10 μM compound
# Summary of the method: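 LNCaP prostate cancer cells were cultured 3 days, then treated with compound for 20 h. Lysates in 1% SDS buffer were normalised by BCA, and 8 μg protein was run on 4–12% Bis-Tris gels. AR was immunoblotted with chemiluminescence, using GAPDH/β-actin as loading controls.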
# T1 sequence (P10275 whole entry T878A): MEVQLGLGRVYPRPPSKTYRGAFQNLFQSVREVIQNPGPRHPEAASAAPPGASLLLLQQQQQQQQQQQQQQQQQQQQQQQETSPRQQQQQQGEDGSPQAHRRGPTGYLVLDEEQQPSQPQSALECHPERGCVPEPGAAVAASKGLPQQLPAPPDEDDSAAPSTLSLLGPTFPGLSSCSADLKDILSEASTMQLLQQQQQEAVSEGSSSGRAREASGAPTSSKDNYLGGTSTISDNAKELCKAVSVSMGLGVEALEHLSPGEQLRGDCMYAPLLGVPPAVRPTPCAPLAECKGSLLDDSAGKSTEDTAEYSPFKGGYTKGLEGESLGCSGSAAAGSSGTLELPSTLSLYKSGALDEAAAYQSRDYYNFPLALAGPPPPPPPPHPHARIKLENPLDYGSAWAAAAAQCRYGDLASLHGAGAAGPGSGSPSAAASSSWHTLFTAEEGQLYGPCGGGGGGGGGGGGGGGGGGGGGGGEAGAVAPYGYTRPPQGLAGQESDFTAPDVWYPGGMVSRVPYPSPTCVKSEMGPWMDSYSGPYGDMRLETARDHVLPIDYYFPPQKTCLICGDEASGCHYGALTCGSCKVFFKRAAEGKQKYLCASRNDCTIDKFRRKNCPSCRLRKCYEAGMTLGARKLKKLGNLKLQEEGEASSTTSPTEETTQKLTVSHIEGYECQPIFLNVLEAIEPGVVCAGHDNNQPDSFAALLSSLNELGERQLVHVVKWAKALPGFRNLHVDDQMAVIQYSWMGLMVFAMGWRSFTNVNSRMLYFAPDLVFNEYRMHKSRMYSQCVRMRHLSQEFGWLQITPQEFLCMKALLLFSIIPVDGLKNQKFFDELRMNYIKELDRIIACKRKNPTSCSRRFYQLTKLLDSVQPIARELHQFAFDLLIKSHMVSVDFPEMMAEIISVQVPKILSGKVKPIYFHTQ
# T1 sequence (Q96SW2 whole entry partner): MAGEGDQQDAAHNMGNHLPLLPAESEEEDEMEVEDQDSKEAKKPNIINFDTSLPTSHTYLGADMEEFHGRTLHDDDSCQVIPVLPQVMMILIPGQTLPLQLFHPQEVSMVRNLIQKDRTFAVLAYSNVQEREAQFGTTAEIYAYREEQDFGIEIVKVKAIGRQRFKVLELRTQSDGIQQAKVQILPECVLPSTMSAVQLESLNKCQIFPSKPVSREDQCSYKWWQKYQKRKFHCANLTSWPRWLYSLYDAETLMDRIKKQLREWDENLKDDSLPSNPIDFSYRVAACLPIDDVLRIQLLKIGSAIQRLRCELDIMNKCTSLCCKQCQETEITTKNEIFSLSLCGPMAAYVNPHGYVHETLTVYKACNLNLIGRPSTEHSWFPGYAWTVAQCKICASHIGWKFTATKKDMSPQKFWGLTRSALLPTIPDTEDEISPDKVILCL
smiles,measurement,value
"N#Cc1ccc(N2CCC(C(=O)Nc3ccc(N4CCC(CN5CC6(CCN(c7ccc8nnn(C9CCC(=O)NC9=O)c(=O)c8c7)CC6)C5)CC4)cn3)CC2)cc1C(F)(F)F (stereo not shown) [Example 53, 1-(4-cyano-3-(trifluoromethyl)phenyl)-N-(5-(4-((7-(3-(2,6-dioxopiperidin-3-yl)-4-oxo-3,4-dihydrobenzo[d][1,2,3]triazin-6-yl)-2,7-diazaspiro[3.5]nonan-2-yl)methyl)piperidin-1-yl)pyridin-2-yl)piperidine-4-carboxamide]",inhibition at 0.01 µM,27%
same,inhibition at 0.1 µM,89%
same,inhibition at 1 µM,93%
"N#Cc1ccc(N2CCC(F)(C(=O)Nc3ccc(N4CCC(CN5CC6(CCN(c7ccc8c(c7)C(=O)N(C7CCC(=O)NC7=O)C8=O)CC6)C5)CC4)cn3)CC2)cc1C(F)(F)F (stereo not shown) [Example 54, 1-(4-cyano-3-(trifluoromethyl)phenyl)-N-(5-(4-((7-(2-(2,6-dioxopiperidin-3-yl)-1,3-dioxoisoindolin-5-yl)-2,7-diazaspiro[3.5]nonan-2-yl)methyl)piperidin-1-yl)pyridin-2-yl)-4-fluoropiperidine-4-carboxamide]",inhibition at 0.01 µM,60%
same,inhibition at 0.1 µM,95%
same,inhibition at 1 µM,98%
"N#Cc1ccc(N2CCC(O)(C(=O)Nc3ccc(N4CCC(CN5CC6(CCN(c7ccc8c(c7)C(=O)N(C7CCC(=O)NC7=O)C8=O)CC6)C5)CC4)cn3)CC2)cc1C(F)(F)F (stereo not shown) [Example 55, 1-(4-cyano-3-(trifluoromethyl)phenyl)-N-(5-(4-((7-(2-(2,6-dioxopiperidin-3-yl)-1,3-dioxoisoindolin-5-yl)-2,7-diazaspiro[3.5]nonan-2-yl)methyl)piperidin-1-yl)pyridin-2-yl)-4-hydroxypiperidine-4-carboxamide]",inhibition at 0.01 µM,34%
same,inhibition at 0.1 µM,69%
same,inhibition at 1 µM,95%
"N#Cc1ccc(N2CCC(CC(=O)Nc3ccc(N4CCC(CN5CC6(CCN(c7ccc8c(c7)C(=O)N(C7CCC(=O)NC7=O)C8=O)CC6)C5)CC4)cn3)C2)cc1C(F)(F)F (stereo not shown) [Example 56, 2-(1-(4-cyano-3-(trifluoromethyl)phenyl)pyrrolidin-3-yl)-N-(5-(4-((7-(2-(2,6-dioxopiperidin-3-yl)-1,3-dioxoisoindolin-5-yl)-2,7-diazaspiro[3.5]nonan-2-yl)methyl)piperidin-1-yl)pyridin-2-yl)acetamide]",inhibition at 0.01 µM,-8%
same,inhibition at 0.1 µM,87%
same,inhibition at 1 µM,95%
"N#Cc1ncc(N2CCC(C(=O)Nc3ccc(N4CCC(CN5CC6(CCN(c7ccc8c(c7)C(=O)N(C7CCC(=O)NC7=O)C8=O)CC6)C5)CC4)cn3)CC2)cc1C(F)(F)F (stereo not shown) [Example 57, 1-(6-cyano-5-(trifluoromethyl)pyridin-3-yl)-N-(5-(4-((7-(2-(2,6-dioxopiperidin-3-yl)-1,3-dioxoisoindolin-5-yl)-2,7-diazaspiro[3.5]nonan-2-yl)methyl)piperidin-1-yl)pyridin-2-yl)piperidine-4-carboxamide]",inhibition at 0.01 µM,43%
same,inhibition at 0.1 µM,85%
same,inhibition at 1 µM,96%
"N#Cc1ncc(N2CCC(F)(C(=O)Nc3ccc(N4CCC(CN5CC6(CCN(c7ccc8c(c7)C(=O)N(C7CCC(=O)NC7=O)C8=O)CC6)C5)CC4)cn3)CC2)cc1C(F)(F)F (stereo not shown) [Example 58, 1-(6-cyano-5-(trifluoromethyl)pyridin-3-yl)-N-(5-(4-((7-(2-(2,6-dioxopiperidin-3-yl)-1,3-dioxoisoindolin-5-yl)-2,7-diazaspiro[3.5]nonan-2-yl)methyl)piperidin-1-yl)pyridin-2-yl)-4-fluoropiperidine-4-carboxamide]",inhibition at 0.01 µM,16%
same,inhibition at 0.1 µM,41%
same,inhibition at 1 µM,77%
"N#Cc1ccc(N2CCC(C(=O)Nc3ccc(N4CCC(CN5CC6(CCN(c7ccc8c(c7)C(=O)N(C7CCC(=O)NC7=O)C8=O)CC6)C5)CC4)nc3)CC2)cc1C(F)(F)F (stereo not shown) [Example 59, 1-(4-cyano-3-(trifluoromethyl)phenyl)-N-(6-(4-((7-(2-(2,6-dioxopiperidin-3-yl)-1,3-dioxoisoindolin-5-yl)-2,7-diazaspiro[3.5]nonan-2-yl)methyl)piperidin-1-yl)pyridin-3-yl)piperidine-4-carboxamide]",inhibition at 0.01 µM,9%
same,inhibition at 0.1 µM,32%
same,inhibition at 1 µM,47%
same,inhibition at 10 µM,68%
"N#Cc1ccc(N2CCC(C(=O)Nc3ccc(N4CCC(CN5CC6(CCN(c7ccc8c(c7)C(=O)N(C7CCC(=O)NC7=O)C8=O)CC6)C5)CC4)nc3)CC2)cc1Cl (stereo not shown) [Example 60, 1-(3-chloro-4-cyanophenyl)-N-(6-(4-((7-(2-(2,6-dioxopiperidin-3-yl)-1,3-dioxoisoindolin-5-yl)-2,7-diazaspiro[3.5]nonan-2-yl)methyl)piperidin-1-yl)pyridin-3-yl)piperidine-4-carboxamide]",inhibition at 0.01 µM,16%
same,inhibition at 0.1 µM,32%
same,inhibition at 1 µM,32%
same,inhibition at 10 µM,66%
"N#Cc1ccc(N2CCC(C(=O)Nc3ccc(N4CC[C@@H](CN5CC6(CCN(c7ccc8c(c7)C(=O)N(C7CCC(=O)NC7=O)C8=O)CC6)C5)C4)cn3)CC2)cc1C(F)(F)F (stereo partly drawn) [Example 61, 1-(4-cyano-3-(trifluoromethyl)phenyl)-N-(5-((3S)-3-((7-(2-(2,6-dioxopiperidin-3-yl)-1,3-dioxoisoindolin-5-yl)-2,7-diazaspiro[3.5]nonan-2-yl)methyl)pyrrolidin-1-yl)pyridin-2-yl)piperidine-4-carboxamide]",inhibition at 0.01 µM,57%
same,inhibition at 0.1 µM,94.5%
same,inhibition at 1 µM,97.5%
same,inhibition at 10 µM,96%
"N#Cc1ccc(N2CCC(C(=O)Nc3ccc(N4CC[C@H](CN5CC6(CCN(c7ccc8c(c7)C(=O)N(C7CCC(=O)NC7=O)C8=O)CC6)C5)C4)cn3)CC2)cc1C(F)(F)F (stereo partly drawn) [Example 62, 1-(4-cyano-3-(trifluoromethyl)phenyl)-N-(5-((3R)-3-((7-(2-(2,6-dioxopiperidin-3-yl)-1,3-dioxoisoindolin-5-yl)-2,7-diazaspiro[3.5]nonan-2-yl)methyl)pyrrolidin-1-yl)pyridin-2-yl)piperidine-4-carboxamide]",inhibition at 0.01 µM,69%
same,inhibition at 0.1 µM,95%
same,inhibition at 1 µM,96%
same,inhibition at 10 µM,87.5%
"N#Cc1ccc(N2CCC(C(=O)Nc3ccc(N4CCC(CN5CCC6(CC5)CN(c5ccc7c(c5)C(=O)N(C5CCC(=O)NC5=O)C7=O)C6)CC4)cn3)CC2)cc1C(F)(F)F (stereo not shown) [Example 63, 1-(4-cyano-3-(trifluoromethyl)phenyl)-N-(5-(4-((2-(2-(2,6-dioxopiperidin-3-yl)-1,3-dioxoisoindolin-5-yl)-2,7-diazaspiro[3.5]nonan-7-yl)methyl)piperidin-1-yl)pyridin-2-yl)piperidine-4-carboxamide]",inhibition at 0.01 µM,45%
same,inhibition at 0.1 µM,94%
same,inhibition at 1 µM,98.5%
same,inhibition at 10 µM,94.5%
"N#Cc1ccc(N2CCC(C(=O)Nc3ccc(N4CCC(CN5CCC6(CC5)CN(c5ccc7c(c5)C(=O)N(C5CCC(=O)NC5=O)C7=O)C6)CC4)cn3)CC2)cc1Cl (stereo not shown) [Example 64, 1-(3-chloro-4-cyanophenyl)-N-(5-(4-((2-(2-(2,6-dioxopiperidin-3-yl)-1,3-dioxoisoindolin-5-yl)-2,7-diazaspiro[3.5]nonan-7-yl)methyl)piperidin-1-yl)pyridin-2-yl)piperidine-4-carboxamide]",inhibition at 0.01 µM,71.5%
same,inhibition at 0.1 µM,97%
same,inhibition at 1 µM,98.5%
same,inhibition at 10 µM,98.5%
"COc1ccc(C(=O)N2CC3(CCN(CC4CCN(c5ccc(NC(=O)C6CCN(c7ccc(C#N)c(C(F)(F)F)c7)CC6)nc5)CC4)CC3)C2)cc1N1CCC(=O)NC1=O [Example 65, 1-(4-cyano-3-(trifluoromethyl)phenyl)-N-(5-(4-((2-(3-(2,4-dioxotetrahydropyrimidin-1(2H)-yl)-4-methoxybenzoyl)-2,7-diazaspiro[3.5]nonan-7-yl)methyl)piperidin-1-yl)pyridin-2-yl)piperidine-4-carboxamide]",inhibition at 0.01 µM,55%
same,inhibition at 0.1 µM,80%
same,inhibition at 1 µM,82%
same,inhibition at 10 µM,63%
"N#Cc1ccc(N2CCC(C(=O)Nc3ccc(N4CCC(CN5CC6(C5)CN(c5ccc7c(c5)C(=O)N(C5CCC(=O)NC5=O)C7=O)C6)CC4)cn3)CC2)cc1C(F)(F)F (stereo not shown) [Example 66, 1-(4-cyano-3-(trifluoromethyl)phenyl)-N-(5-(4-((6-(2-(2,6-dioxopiperidin-3-yl)-1,3-dioxoisoindolin-5-yl)-2,6-diazaspiro[3.3]heptan-2-yl)methyl)piperidin-1-yl)pyridin-2-yl)piperidine-4-carboxamide]",inhibition at 0.01 µM,75.5%
same,inhibition at 0.1 µM,95.5%
same,inhibition at 1 µM,97%
same,inhibition at 10 µM,94%
"N#Cc1ccc(N2CCC(C(=O)Nc3ccc(N4CCC(CN5CC6(C5)CN(c5ccc7c(c5)C(=O)N(C5CCC(=O)NC5=O)C7=O)C6)CC4)cn3)CC2)cc1Cl (stereo not shown) [Example 67, 1-(3-chloro-4-cyanophenyl)-N-(5-(4-((6-(2-(2,6-dioxopiperidin-3-yl)-1,3-dioxoisoindolin-5-yl)-2,6-diazaspiro[3.3]heptan-2-yl)methyl)piperidin-1-yl)pyridin-2-yl)piperidine-4-carboxamide]",inhibition at 0.01 µM,46%
same,inhibition at 0.1 µM,90%
same,inhibition at 1 µM,88%
same,inhibition at 10 µM,86%
"N#Cc1ccc(N2CCC(C(=O)Nc3ccc(N4CCC(CN5CCC6(CC5)CCN(c5ccc7c(c5)C(=O)N(C5CCC(=O)NC5=O)C7=O)CC6)CC4)cn3)CC2)cc1C(F)(F)F (stereo not shown) [Example 68, 1-(4-cyano-3-(trifluoromethyl)phenyl)-N-(5-(4-((9-(2-(2,6-dioxopiperidin-3-yl)-1,3-dioxoisoindolin-5-yl)-3,9-diazaspiro[5.5]undecan-3-yl)methyl)piperidin-1-yl)pyridin-2-yl)piperidine-4-carboxamide]",inhibition at 0.01 µM,66%
same,inhibition at 0.1 µM,91%
same,inhibition at 1 µM,90%
same,inhibition at 10 µM,85%
